# How the values were obtained:
# Type in all cases: functional
# [1] = system: CCRF-CEM; test: Growth inhibition of human CCRF-CEM cells
# [2] = system: HL-60(TB); test: Growth inhibition of human HL-60(TB) cells
# [3] = system: MOLT-4; test: Growth inhibition of human MOLT4 cells
# [4] = Growth inhibition of human […] cells
# [5] = system: SR; test: Growth inhibition of human SR cells
# [6] = system: A549; test: Growth inhibition of human A549 cells
# [7] = system: EKVX; test: Growth inhibition of human EKVX cells
# [8] = system: HOP-62; test: Growth inhibition of human HOP62 cells
# [9] = system: HOP-92; test: Growth inhibition of human HOP92 cells
# [10] = system: NCI-H226; test: Growth inhibition of human NCI-H226 cells
# [11] = system: NCI-H23; test: Growth inhibition of human NCI-H23 cells
# [12] = system: NCI-H322M; test: Growth inhibition of human NCI-H322M cells
# [13] = system: NCI-H460; test: Growth inhibition of human NCI-H460 cells
# [14] = system: NCI-H522; test: Growth inhibition of human NCI-H522 cells
# [15] = system: COLO 205; test: Growth inhibition of human COLO205 cells
# [16] = system: HCC 2998; test: Growth inhibition of human HCC2998 cells
# [17] = system: HCT-116; test: Growth inhibition of human HCT116 cells
# [18] = system: HCT-15; test: Growth inhibition of human HCT15 cells
# [19] = system: HT-29; test: Growth inhibition of human HT-29 cells
# [20] = system: KM12; test: Growth inhibition of human KM12 cells
# [21] = system: SW-620; test: Growth inhibition of human SW620 cells
# [22] = system: SF-295; test: Growth inhibition of human SF295 cells
# [23] = system: SF-539; test: Growth inhibition of human SF539 cells
# [24] = system: SNB-19; test: Growth inhibition of human SNB19 cells
# [25] = system: SNB-75; test: Growth inhibition of human SNB75 cells
# [26] = system: U-251; test: Growth inhibition of human U251 cells
# [27] = system: Malme-3M; test: Growth inhibition of human MALME-3M cells
# [28] = system: M14; test: Growth inhibition of human M14 cells
# [29] = system: SK-MEL-2; test: Growth inhibition of human SK-MEL-2 cells
# [30] = system: SK-MEL-28; test: Growth inhibition of human SK-MEL-28 cells
# [31] = system: SK-MEL-5; test: Growth inhibition of human SK-MEL-5 cells
# [32] = system: UACC-257; test: Growth inhibition of human UACC257 cells
# [33] = system: UACC-62; test: Growth inhibition of human UACC62 cells
# [34] = system: IGROV-1; test: Growth inhibition of human IGROV1 cells
# [35] = system: OVCAR-3; test: Growth inhibition of human OVCAR-3 cells
# [36] = system: OVCAR-4; test: Growth inhibition of human OVCAR4 cells
# [37] = system: OVCAR-5; test: Growth inhibition of human OVCAR5 cells
# [38] = system: OVCAR-8; test: Growth inhibition of human OVCAR8 cells
# [39] = system: SK-OV-3; test: Growth inhibition of human SKOV3 cells
# [40] = system: 786-0; test: Growth inhibition of human 786-0 cells
# [41] = system: A498; test: Growth inhibition of human A498 cells
# [42] = system: ACHN; test: Growth inhibition of human ACHN cells
# [43] = system: CAKI-1; test: Growth inhibition of human Caki1 cells
# [44] = system: RXF 393; test: Growth inhibition of human […] cells
# [45] = system: SN12C; test: Growth inhibition of human SN12C cells
# [46] = system: UO-31; test: Growth inhibition of human UO31 cells
# [47] = system: DU-145; test: Growth inhibition of human DU145 cells
# [48] = system: MCF7; test: Growth inhibition of human MCF7 cells
# [49] = Growth inhibition of human MCF7/ADR resistant cells; settings: NCI/ADR-RES
# [50] = system: MDA-MB-231; test: Growth inhibition of human MDA-MB-231 cells
# [51] = Growth inhibition of human Hs 578T cells
# [52] = system: MDA-MB-435; test: Growth inhibition of human MDA-MB-435 cells
# [53] = system: MDA-N; test: Growth inhibition of human MDA-N cells
# [54] = system: BT-549; test: Growth inhibition of human BT549 cells
# [55] = system: T47D; test: Growth inhibition of human T47D cells
# [56] = system: L1210; test: Growth inhibition of mouse L1210 cells assessed as zone units at 50 ug/disk by disk diffusion agar colony formation assay
# [57] = system: P388; test: Growth inhibition of mouse P388 cells assessed as zone units at 50 ug/disk by disk diffusion agar colony formation assay
# [58] = system: PO3; test: Growth inhibition of mouse PO3 cells assessed as zone units at 50 ug/disk by disk diffusion agar colony formation assay
# [59] = Growth inhibition of mouse M17/ADR cells assessed as zone units at 50 ug/disk by disk diffusion agar colony formation assay
# [60] = Growth inhibition of human H116 cells assessed as zone units at 50 ug/disk by disk diffusion agar colony formation assay
# [61] = system: K562; test: Growth inhibition of human K562 cells
# [62] = system: LOX IMVI; test: Growth inhibition of human LOXIMVI cells
# [63] = system: TK-10; test: Growth inhibition of human TK10 cells
# [64] = system: PC-3; test: Growth inhibition of human PC3 cells
# [65] = system: MC-38; test: Growth inhibition of mouse C38 cells assessed as zone units at 50 ug/disk by disk diffusion agar colony formation assay
# [66] = system: CX-1; test: Growth inhibition of human CX-1 cells assessed as zone units at 50 ug/disk by disk diffusion agar colony formation assay
smiles,measurement,setting,value
CC(=O)CC/C=C(\C)CCC1=C(C)CCCC1(C)C,GI50,[1],2.94 µM
same,GI50,[2],2.88 µM
same,GI50,[3],2.08 µM
same,GI50,[4],> 15 µM
same,GI50,[5],4.94 µM
same,GI50,[6],> 15 µM
same,GI50,[7],> 15 µM
same,GI50,[8],> 15 µM
same,GI50,[9],> 15 µM
same,GI50,[10],> 15 µM
same,GI50,[11],> 15 µM
same,GI50,[12],> 15 µM
same,GI50,[13],> 15 µM
same,GI50,[14],> 15 µM
same,GI50,[15],> 15 µM
same,GI50,[16],> 15 µM
same,GI50,[17],> 15 µM
same,GI50,[18],> 15 µM
same,GI50,[19],> 15 µM
same,GI50,[20],8.61 µM
same,GI50,[21],6.34 µM
same,GI50,[22],> 15 µM
same,GI50,[23],> 15 µM
same,GI50,[24],< 0.0015 µM
same,GI50,[25],5.15 µM
same,GI50,[26],> 15 µM
same,GI50,[27],> 15 µM
same,GI50,[28],< 0.0015 µM
same,GI50,[29],> 15 µM
same,GI50,[30],> 15 µM
same,GI50,[31],> 15 µM
same,GI50,[32],> 15 µM
same,GI50,[33],> 15 µM
same,GI50,[34],9.53 µM
same,GI50,[35],> 15 µM
same,GI50,[36],> 15 µM
same,GI50,[37],> 15 µM
same,GI50,[38],> 15 µM
same,GI50,[39],> 15 µM
same,GI50,[40],> 15 µM
same,GI50,[41],> 15 µM
same,GI50,[42],> 15 µM
same,GI50,[43],> 15 µM
same,GI50,[44],> 15 µM
same,GI50,[45],9.48 µM
same,GI50,[46],> 15 µM
same,GI50,[47],> 15 µM
same,GI50,[48],> 15 µM
same,GI50,[49],> 15 µM
same,GI50,[50],> 15 µM
same,GI50,[51],1.86 µM
same,GI50,[52],> 15 µM
same,GI50,[53],> 15 µM
same,GI50,[54],> 15 µM
same,GI50,[55],> 15 µM
same,Activity,[56],60 Zone units
same,Activity,[57],60 Zone units
same,Activity,[58],40 Zone units
same,Activity,[59],0 Zone units
same,Activity,[60],30 Zone units
"C=C1CCCC(C)(C)C1CCC1(C)CC[C@H]([C@@H](C)C(=O)O)OO1 (single isomer, unassigned) [NAPAPUIN B]",GI50,[1],1.76 µM
same,GI50,[2],1.63 µM
same,GI50,[61],3.3 µM
same,GI50,[3],2.16 µM
same,GI50,[4],3.91 µM
same,GI50,[5],1.8 µM
same,GI50,[6],3.05 µM
same,GI50,[7],3.19 µM
same,GI50,[8],2.11 µM
same,GI50,[9],2.23 µM
same,GI50,[10],12.5 µM
same,GI50,[11],7.61 µM
same,GI50,[12],12.5 µM
same,GI50,[13],1.83 µM
same,GI50,[14],1.21 µM
same,GI50,[15],8.31 µM
same,GI50,[16],6.78 µM
same,GI50,[17],5.19 µM
same,GI50,[18],10.7 µM
same,GI50,[19],9.26 µM
same,GI50,[20],4.82 µM
same,GI50,[21],7.23 µM
same,GI50,[22],5.44 µM
same,GI50,[23],3.28 µM
same,GI50,[24],> 12.5 µM
same,GI50,[25],3.39 µM
same,GI50,[26],4.33 µM
same,GI50,[62],0.25 µM
same,GI50,[27],> 12.5 µM
same,GI50,[28],12.2 µM
same,GI50,[29],5.06 µM
same,GI50,[30],> 12.5 µM
same,GI50,[31],6.14 µM
same,GI50,[32],> 12.5 µM
same,GI50,[33],9.24 µM
same,GI50,[34],0.63 µM
same,GI50,[35],2.49 µM
same,GI50,[36],2.4 µM
same,GI50,[37],> 12.5 µM
same,GI50,[38],> 12.5 µM
same,GI50,[39],9.24 µM
same,GI50,[40],0.94 µM
same,GI50,[41],> 12.5 µM
same,GI50,[42],7.83 µM
same,GI50,[43],2 µM
same,GI50,[44],5.04 µM
same,GI50,[45],11.3 µM
same,GI50,[63],4.06 µM
same,GI50,[46],4.31 µM
same,GI50,[64],> 12.5 µM
same,GI50,[47],2.71 µM
same,GI50,[48],> 12.5 µM
same,GI50,[49],8.78 µM
same,GI50,[50],7.44 µM
same,GI50,[51],8.74 µM
same,GI50,[52],2.69 µM
same,GI50,[53],3.52 µM
same,GI50,[54],1.05 µM
same,GI50,[55],3.35 µM
same,Activity,[56],230 Zone units
same,Activity,[57],230 Zone units
same,Activity,[65],300 Zone units
same,Activity,[59],330 Zone units
same,Activity,[66],200 Zone units
C=C1CCCC(C)(C)C1CC[C@]1(C)CC[C@@H]([C@@H](C)C(=O)O)OO1 (stereo partly drawn) [EPINUAPAPUIN B],GI50,[1],2.27 µM
same,GI50,[2],2.06 µM
same,GI50,[3],7.43 µM
same,GI50,[4],> 10 µM
same,GI50,[5],2.72 µM
same,GI50,[6],> 10 µM
same,GI50,[7],> 10 µM
same,GI50,[8],9.54 µM
same,GI50,[9],6.63 µM
same,GI50,[10],> 10 µM
same,GI50,[11],> 10 µM
same,GI50,[12],> 10 µM
same,GI50,[13],> 10 µM
same,GI50,[14],2.06 µM
same,GI50,[15],> 10 µM
same,GI50,[16],> 10 µM
same,GI50,[17],> 10 µM
same,GI50,[18],> 10 µM
same,GI50,[19],> 10 µM
same,GI50,[20],5.73 µM
same,GI50,[21],> 10 µM
same,GI50,[22],> 10 µM
same,GI50,[23],> 10 µM
same,GI50,[25],> 10 µM
same,GI50,[26],> 10 µM
same,GI50,[27],3.96 µM
same,GI50,[28],> 10 µM
same,GI50,[29],> 10 µM
same,GI50,[30],> 10 µM
same,GI50,[31],> 10 µM
same,GI50,[32],> 10 µM
same,GI50,[33],> 10 µM
same,GI50,[34],1.73 µM
same,GI50,[35],> 10 µM
same,GI50,[36],> 10 µM
same,GI50,[37],> 10 µM
same,GI50,[38],> 10 µM
same,GI50,[39],> 10 µM
same,GI50,[40],> 10 µM
same,GI50,[41],> 10 µM
same,GI50,[42],> 10 µM
same,GI50,[43],> 10 µM
same,GI50,[44],> 10 µM
same,GI50,[45],> 10 µM
same,GI50,[46],> 10 µM
same,GI50,[47],> 10 µM
same,GI50,[48],> 10 µM
same,GI50,[49],> 10 µM
same,GI50,[50],> 10 µM
same,GI50,[51],> 10 µM
same,GI50,[52],> 10 µM
same,GI50,[53],> 10 µM
same,GI50,[54],> 10 µM
same,GI50,[55],> 10 µM
same,Activity,[56],160 Zone units
same,Activity,[57],160 Zone units
same,Activity,[58],60 Zone units
same,Activity,[59],210 Zone units
same,Activity,[60],70 Zone units
